These results are taken from PMC10870298, “Rational Design of Antifungal Peptides Based on the γ-Core Motif of a Neosartorya (Aspergillus) fischeri Antifungal Protein to Improve Structural Integrity, Efficacy, and Spectrum” (ACS Omega, 2024).

Data set [1] relates to A. fumigatus CBS 101355. The class given is cell-based, Aspergillus fumigatus. The note with it: CBS 101355, 72 h. The method, then: (§1) The lyophilized and stored peptides were dissolved in sterile ddH2O (5 mg mL^–1). Then, half of the volume of the peptide stock was tested for antifungal activity and stored at −20 °C until RP-HPLC and ECD analyses. This peptide sample is termed the −20 °C sample. The other half volume of the stock was stored at 4 °C for 7 days, tested for antifungal activity, and stored at −20 °C until RP-HPLC and ECD analyses. This peptide sample is referred to as the 4 °C sample.
(§2) MICs of NFAP γ-core peptide derivatives were determined against C. albicans SC5314 and A. fumigatus CBS 101355. These fungi were maintained on yeast peptone dextrose agar (YPD: 10 g L^–1 yeast extract, 20 g L^–1 peptone, 20 g L^–1D-glucose, 15 g L^–1 agar) and malt extract agar (MEA, Sigma-Aldrich) slants at 4 °C, respectively. Susceptibility tests were performed in low cationic medium (LCM: 5 g L^–1D-glucose, 0.25 g L^–1 yeast extract, 0.125 g L^–1 peptone) according to Tóth et al. (2018)[16] and Tóth et al. (2020)[19] for yeasts and molds, respectively, with slight modifications. Briefly, 100 μL NFAP γ-core peptide (0.39–400 μg mL^–1 in two-fold serial dilutions in LCM) was mixed with 100 μL of 2 × 10^5 mL^–1 mid-log phase C. albicans cells or freshly harvested A. fumigatus conidia in LCM in a flat-bottom 96-well microtiter plate (TC Plate 96 Well, Suspension, F; Sarstedt, Nümbrecht, Germany). A mixture of 100 μL of medium (LCM) without NFAP γ-core peptide derivative and 100 μL of cell or conidium suspension served as the untreated growth control, whereas 200 μL of LCM was used for background calibration. The plates were incubated statically for 48 h (C. albicans) or 72 h (A. fumigatus) at 30 °C. The absorbance (OD620) of each well was measured after shaking for 5 s using a microtiter plate reader (SPECTROstar Nano; BMG Labtech, Ortenberg, Germany). The absorbance of the untreated control was taken as 100% growth for the MIC calculation. MIC was defined as the lowest peptide concentration that reduced fungal growth by […] compared with the untreated control. Susceptibility tests were performed in two technical replicates and were repeated at least two times.

Data set [2] relates to C. albicans SC5314. The class given is cell-based, Candida albicans. The note with it: SC5314, 48 h. As for the experimental part: as §1, §2
Data set [3] in a line: Structural integrity (disulfide bridge formation on storage) by RP-HPLC. The class given is physicochemical. As for the experimental part: The half volume of the dissolved lyophilized peptides was promptly stored at −20 °C for 7 days. The other half volume of these peptides was stored at 4 °C for 7 days (oxidative condition) and then at −20 °C until RP-HPLC and electronic circular dichroism (ECD) analyses were performed. Herein, these peptide samples are referred to as −20 and 4 °C samples, respectively.
as §1
Crude peptides were purified by semipreparative RP-HPLC using a solvent system of (A) 0.1% TFA and (B) 80% acetonitrile, 0.1% TFA, and a linear gradient from 0 to 30% (B) in 60 min. Purification was performed on a Phenomenex Jupiter Proteo 90 Å column (250 × 10 mm) using a Shimadzu HPLC apparatus (Berlin, Germany). Absorbance was detected at 220 nm. Purity was evaluated by analytical RP-HPLC using a Phenomenex Luna 10 μ C18 100 A column and an Agilent 1100 HPLC instrument (Palo Alto, CA, USA).

Data set [4] relates to C. albicans SC5314. The experiment in a line: Cell-killing efficacy: growth kinetics of high-density culture and drop viability on YPD agar. The class given is cell-based, Candida albicans. The note with it: for growth of high-density C. albicans culture: OD600 = 0.2 mid-log cells, LCM, 30 °C, 24 h. As for the experimental part: Compared with MIC determination, monitoring the growth kinetics of high-density cell cultures in the presence of various peptide concentrations allows for detailed insight into the cell-killing efficacy over time and how cysteine modifications influence it. Therefore, the growth of high-density C. albicans cell culture (OD600 = 0.2) was monitored in the presence of 0.5× MIC, 1× MIC, and 2× MIC of the NFAP γ-core peptides.
The experiment was conducted in a flat-bottom 96-well microtiter plate (TC Plate 96 Well, Suspension, F; Sarstedt, Nümbrecht, Germany): 100 μL of OD600 = 0.2 mid-log phase cells prepared in LCM were mixed with 100 μL of 1× MIC, 2× MIC, or 4× MIC of the peptide diluted in LCM. The plates were incubated statically at 30 °C for 24 h. The absorbance (OD600) of each well was then measured after shaking for 5 s every hour using a microtiter plate reader (BioTek Synergy HTX Multi-Mode Microplate Reader; Agilent Technologies, Santa Clara, CA, USA). Untreated cells (100 μL LCM mixed with 100 μL OD600 = 0.2 mid-log phase cells prepared in LCM) served as growth controls. To examine the viability of the treated C. albicans cells, 5–5 μL cultures from each well were dropped onto the YPD agar plate after the last OD600 measurement and allowed to dry before incubation at 30 °C for 24 h. The plates were photographed (Versa Doc Imaging System 4000 MP; Bio-Rad, Hercules, CA, USA). These experiments were repeated two times, involving three technical replicates.

Data set [5] relates to human cell lines (monocytes, colonic epithelial cells, keratinocytes). To be noted: cited from earlier work. An excerpt: (§3) The clinical application of antimicrobial peptides is limited by their potential hemolytic activity, toxicity, immunogenicity, and other side effects.[27] […] Herein, we investigated how cysteine–serine substitution(s) and S-tert-butylation of these peptides influence hemolytic activ ...

Data set [6] has as its system sheep blood. To be noted: cited from earlier work.
Text: as §3

For data set [7], the system named is plant pathogenic filamentous fungi. The note with it: previous studies; cited from earlier work. An excerpt: Presumably, these peptides exert an antifungal mechanism through membrane disruption,[17] and the high positive net charge supports this mechanism. Additionally, neither hydrop ...

SMILES strings stand for the structures. Residues, ends and D or L forms follow the SMILES beside them.

Consider `CC[C@H](C)[C@H](NC(=O)[C@H](CCCCN)NC(=O)[C@H](CS)NC(=O)[C@H](CCCCN)NC(=O)[C@@H](NC(=O)[C@H](CCCCN)NC(=O)[C@@H](NC(=O)[C@H](CCC(=O)O)NC(C)=O)[C@@H](C)CC)[C@@H](C)CC)C(=O)N[C@@H](CCCCN)C(=O)N[C@@H](CCCCN)C(=O)N[C@H](C(=O)N[C@@H](CCCCN)C(=O)N[C@@H](CS)C(=O)N[C@@H](CCCCN)C(N)=O)[C@@H](C)CC` [NFAPimpγGZ] (Ac-EIKIKCKIKKIKCK-NH2), for which the MIC in data set [1] was found to be 25 μg mL^–1; in data set [2], 12.5 μg mL^–1. Further, in data set [3] (4 °C sample: 5 mg mL^–1 in sterile ddH2O stored at 4 °C for 7 days (oxidative condition)), the “oxidation / disulfide bridge formation (in words)” value was “fully oxidized to the cyclic form”. In data set [3] (–20 °C sample), the “share of the peptide with intermolecular disulfide bridges (in words)” value is reported as “one-third”. Moreover, the “share of the peptide with intramolecular disulfide bridges (in words)” value in data set [3] (–20 °C sample) is “approximately one-third”. For the same compound, the figures for the “growth of high-density C. albicans culture” value in data set [4] (1× MIC) and in data set [4] (2× MIC) were “allowed the multiplication of C. albicans cells within 24 h” and “total or high growth inhibitions”, respectively. Also, in data set [4] (2× MIC, 24 h treatment at 30 °C, then 5 μL drops on YPD agar 24 h at 30 °C), the “proportion of cells able to multiply (culture drops on YPD agar after treatment)” value is “highly reduce the proportion of cells able to multiply”. The “toxicity to various human cell lines” value in data set [5] is “impaired the viability of keratinocytes at higher concentrations”. In addition, the hemolysis result in data set [6] is recorded as “did not cause hemolysis”. In data set [7], the antifungal activity result is “effectively inhibit the growth”.
